Paper PMC12527922, “Cocaine chemogenetics blunts drug-seeking by synthetic physiology” (Nature, 2025)
Several values for one entry are separate records, joined by “and”; a condition that tells them apart may be missing. Equal values may be shown once.

Tested on: GRABDA dopamine sensor, nucleus accumbens shell
Experiment: Fibre photometry of dopamine (GRABDA) after cocaine administration
Type: in vivo, rat
Settings: for GRABDA dopamine signal, Mean: ED Fig. 9d; for GRABDA response versus saline: cocaine 5, 10, 20 mg per kg i.p.
Description: Male Sprague–Dawley rats were anaesthetized with isoflurane (1.5–2%) and then placed onto a stereotaxic frame (Kopf) and injected with AAV5-Syn::coca-5HT3-IRES-mCherry (0.5 µl, 4.95 × 10^12 vg per ml) into the LHb (AP, −3.8 mm relative to bregma; ML, ±0.7 mm; DV, −5.25 mm, at a 10° angle) (n = 5) or underwent sham surgery (n = 6). Rats were also implanted with an optic fibre (400 µm core, 0.50 NA) attached to a 2.5 mm diameter ferrule (Thorlabs) directed to the medial shell of the nucleus accumbens (AP, +1.7 mm relative to bregma; ML, ±0.9 mm; DV, −7.0 mm). To ensure that AAV9-Syn::GRABDA1m was transduced at the direct vicinity of the fibre tip, we coated the fibre with the AAV (0.4 µl, 5 × 10^12 vg per ml) using a silk fibroin film before its implantation as previously described.
For fibre photometry, dopamine (GRABDA) dynamics were measured using a Tucker-Davis Technologies (TDT) system in anaesthetized rats. […] Data were acquired at 1 kHz. On the testing day, rats were anaesthetized (isoflurane: induction, 5%; maintenance, 3%) and attached to a photometry patch cord (400 μm core, 0.50 NA). GRABDA signals were then collected for 5 min, followed by a saline i.p. injection, and additional GRABDA signal measurement for 20 min. Cocaine was then injected i.p. at 20, 10 or 5 mg per kg, and the GRABDA signal was measured for an additional 20 min. Each rat was tested three times with cocaine doses administered in randomized order. Fibre photometry analyses were performed using scripts in MATLAB R2023b (MathWorks) based on codes from the Barker (https://github.com/djamesbarker)[64] and Lerner (https://github.com/talialerner/)[65] laboratories. […] The GRABDA signal was normalized to values at 1 min before saline or cocaine injection and shown as the average z-scored activity per min. […] Fibre photometry data are represented as mean ± s.e.m. Statistical analyses were performed using Prism 10 (GraphPad).

[1] = ED Fig. 9a, Cocaine 10 mg/kg, Time 5
[2] = ED Fig. 9a, Cocaine 10 mg/kg, Time 6
[3] = ED Fig. 9a, Cocaine 10 mg/kg, Time 7
[4] = ED Fig. 9a, Cocaine 10 mg/kg, Time 8
[5] = ED Fig. 9a, Cocaine 10 mg/kg, Time 9
[6] = ED Fig. 9a, Cocaine 10 mg/kg, Time 10
[7] = ED Fig. 9a, Cocaine 10 mg/kg, Time 11
[8] = ED Fig. 9a, Cocaine 10 mg/kg, Time 12
[9] = ED Fig. 9a, Cocaine 10 mg/kg, Time 13
[10] = ED Fig. 9a, Cocaine 10 mg/kg, Time 14
[11] = ED Fig. 9a, Cocaine 10 mg/kg, Time 15
[12] = ED Fig. 9a, Cocaine 10 mg/kg, Time 16
[13] = ED Fig. 9a, Cocaine 10 mg/kg, Time 17
[14] = ED Fig. 9a, Cocaine 10 mg/kg, Time 18
[15] = ED Fig. 9a, Cocaine 10 mg/kg, Time 19
[16] = ED Fig. 9a, Cocaine 10 mg/kg, Time -1

COC(=O)[C@H]1[C@@H](OC(=O)c2ccccc2)C[C@@H]2CC[C@H]1N2C [cocaine]
GRABDA dopamine signal, single rats (ED Fig. 9a, Cocaine 10 mg/kg, Time 4): 1.256 and 1.397 and 0.09982 and 0.6394 and 1.0999 and 0.05112 | GRABDA dopamine signal, AVG [1]: 1.193 | GRABDA dopamine signal, single rats [1]: 1.343 and 2.078 and 0.3984 and 0.8156 and 2.4787 and 0.0445 | GRABDA dopamine signal, AVG [2]: 1.422 | GRABDA dopamine signal, single rats [2]: 1.711 and 2.382 and 0.7218 and 1.242 and 2.331 and 0.1429 | GRABDA dopamine signal, AVG [3]: 1.596 | GRABDA dopamine signal, single rats [3]: 1.781 and 2.522 and 1.248 and 1.497 and 2.407 and 0.1218 | GRABDA dopamine signal, AVG [4]: 1.699 | GRABDA dopamine signal, single rats [4]: 2.125 and 2.686 and 1.2639 and 1.736 and 2.313 and 0.06957 | GRABDA dopamine signal, AVG [5]: 1.935 | GRABDA dopamine signal, single rats [5]: 2.098 and 2.8744 and 1.781 and 1.888 and 2.927 and 0.03932 | GRABDA dopamine signal, AVG [6]: 2.176 | GRABDA dopamine signal, single rats [6]: 2.19 and 2.83 and 2.002 and 2.24 and 3.737 and 0.0549 | GRABDA dopamine signal, AVG [7]: 2.088 | GRABDA dopamine signal, single rats [7]: 2.259 and 2.779 and 2.031 and 2.445 and 2.889 and 0.1232 | GRABDA dopamine signal, AVG [8]: 1.996 | GRABDA dopamine signal, single rats [8]: 2.418 and 2.64 and 2.12 and 2.366 and 2.425 and 0.00481 | GRABDA dopamine signal, AVG [9]: 2.15 | GRABDA dopamine signal, single rats [9]: 2.55 and 2.491 and 2.555 and 2.51 and 2.634 and 0.161 | GRABDA dopamine signal, AVG [10]: 2.1808 | GRABDA dopamine signal, single rats [10]: 2.759 and 2.573 and 2.372 and 2.6549 and 2.629 and 0.09693 | GRABDA dopamine signal, AVG [11]: 2.145 | GRABDA dopamine signal, single rats [11]: 2.608 and 2.303 and 2.535 and 2.6631 and 2.692 and 0.06715 | GRABDA dopamine signal, AVG [12]: 2.005 | GRABDA dopamine signal, single rats [12]: 2.483 and 2.2 and 2.525 and 2.513 and 2.213 and 0.09632 | GRABDA dopamine signal, AVG [13]: 2.106 | GRABDA dopamine signal, single rats [13]: 2.751 and 1.972 and 2.4136 and 2.994 and 2.448 and 0.05475 | GRABDA dopamine signal, AVG [14]: 1.975 | GRABDA dopamine signal, single rats [14]: 2.385 and 1.7832 and 2.833 and 2.375 and 2.433 and 0.03971 | GRABDA dopamine signal, AVG [15]: 1.865 | GRABDA dopamine signal, single rats [15]: 2.396 and 1.613 and 2.323 and 2.558 and 2.225 and 0.07693 | GRABDA dopamine signal, AVG [16]: 0.04715 | GRABDA dopamine signal, single rats [16]: 0.0433 and 0.0669 and 0.08953 and 0.0687 | GRABDA dopamine signal, AVG (ED Fig. 9c, Cocaine 20 mg/kg, Time 0): 0.0619 | GRABDA dopamine signal, AVG (ED Fig. 9c, Cocaine 20 mg/kg, Time 1): 0.07229 | GRABDA dopamine signal, AVG (ED Fig. 9c, Cocaine 20 mg/kg, Time 2): 0.3247 | GRABDA dopamine signal, AVG (ED Fig. 9c, Cocaine 20 mg/kg, Time 3): 0.7746 | GRABDA dopamine signal, AVG (ED Fig. 9c, Cocaine 20 mg/kg, Time 4): 1.201 | GRABDA dopamine signal, AVG (ED Fig. 9c, Cocaine 20 mg/kg, Time 5): 1.589 | GRABDA dopamine signal, AVG (ED Fig. 9c, Cocaine 20 mg/kg, Time 6): 1.681 | GRABDA dopamine signal, AVG (ED Fig. 9c, Cocaine 20 mg/kg, Time 7): 1.863 | GRABDA dopamine signal, AVG (ED Fig. 9c, Cocaine 20 mg/kg, Time 8): 1.725 | GRABDA dopamine signal, AVG (ED Fig. 9c, Cocaine 20 mg/kg, Time 9): 1.85 | GRABDA dopamine signal, AVG (ED Fig. 9c, Cocaine 20 mg/kg, Time 10): 1.747 | GRABDA dopamine signal, AVG (ED Fig. 9c, Cocaine 20 mg/kg, Time 11): 1.666 | GRABDA dopamine signal, AVG (ED Fig. 9c, Cocaine 20 mg/kg, Time 12): 1.553 | GRABDA dopamine signal, AVG (ED Fig. 9c, Cocaine 20 mg/kg, Time 13): 1.4 | GRABDA dopamine signal, AVG (ED Fig. 9c, Cocaine 20 mg/kg, Time 14): 1.393 | GRABDA dopamine signal, AVG (ED Fig. 9c, Cocaine 20 mg/kg, Time 15): 1.467 | GRABDA dopamine signal, AVG (ED Fig. 9c, Cocaine 20 mg/kg, Time 16): 1.282 | GRABDA dopamine signal, AVG (ED Fig. 9c, Cocaine 20 mg/kg, Time 17): 1.1 | GRABDA dopamine signal, AVG (ED Fig. 9c, Cocaine 20 mg/kg, Time 18): 1.175 | GRABDA dopamine signal, AVG (ED Fig. 9c, Cocaine 20 mg/kg, Time 19): 1.238 | GRABDA dopamine signal, AVG (ED Fig. 9c, Cocaine 20 mg/kg, Time -1): -0.01168 | GRABDA dopamine signal, Mean (Cocaine 20 mg/kg, Time 0): -0.2698 | GRABDA dopamine signal, Mean (Cocaine 20 mg/kg, Time 1): -0.1247 | GRABDA dopamine signal, Mean (Cocaine 20 mg/kg, Time 2): 0.09345 | GRABDA dopamine signal, Mean (Cocaine 20 mg/kg, Time 3): 0.3137 | GRABDA dopamine signal, Mean (Cocaine 20 mg/kg, Time 4): 0.5516 | GRABDA dopamine signal, Mean (Cocaine 20 mg/kg, Time 5): 0.5577 | GRABDA dopamine signal, Mean (Cocaine 20 mg/kg, Time 6): 0.3392 | GRABDA dopamine signal, Mean (Cocaine 20 mg/kg, Time 7): 0.3431 | GRABDA dopamine signal, Mean (Cocaine 20 mg/kg, Time 8): 0.2873 | GRABDA dopamine signal, Mean (Cocaine 20 mg/kg, Time 9): 0.5323 | GRABDA dopamine signal, Mean (Cocaine 20 mg/kg, Time 10): 0.4252 | GRABDA dopamine signal, Mean (Cocaine 20 mg/kg, Time 11): 0.3604 | GRABDA dopamine signal, Mean (Cocaine 20 mg/kg, Time 12): 0.1832 | GRABDA dopamine signal, Mean (Cocaine 20 mg/kg, Time 13): 0.2813 | GRABDA dopamine signal, Mean (Cocaine 20 mg/kg, Time 14): 0.2778 | GRABDA dopamine signal, Mean (Cocaine 20 mg/kg, Time 15): 0.4094 | GRABDA dopamine signal, Mean (Cocaine 20 mg/kg, Time 16): 0.4918 | GRABDA dopamine signal, Mean (Cocaine 20 mg/kg, Time 17): 0.3214 | GRABDA dopamine signal, Mean (Cocaine 20 mg/kg, Time 18): 0.2818 | GRABDA dopamine signal, Mean (Cocaine 20 mg/kg, Time 19): 0.2119 | GRABDA dopamine signal, Mean (Cocaine 20 mg/kg, Time -1): 0.05504 | GRABDA response versus saline (coca-5HT3 rats): did not produce statistically significant increases | GRABDA response versus saline (control rats): significantly increased
